These results are taken from ChEMBL document CHEMBL2380238, “Synthesis, spectral and antimicrobial evaluation of some novel 1-methyl-3-alkyl-2,6-diphenylpiperidin-4-one oxime carbonates” (2013).

Holding throughout (type): functional
Assay [1] relates to Klebsiella pneumoniae. Description: Antibacterial activity against Klebsiella pneumoniae.
For assay [2], the system named is Klebsiella pneumoniae. Description: Antibacterial activity against Klebsiella pneumoniae after 24 hrs by broth dilution method. (Broth dilution looks for growth in wells or tubes with falling amounts of substance.)
In assay [3] the test system is Pseudomonas aeruginosa. Description: Antibacterial activity against Pseudomonas aeruginosa.
The test system of assay [4] is Escherichia coli. Description: Antibacterial activity against Escherichia coli.
Assay [5] deals with Pseudomonas aeruginosa. Description: Antibacterial activity against Pseudomonas aeruginosa after 24 hrs by broth dilution method.
Assay [6] has as its system Escherichia coli. Description: Antibacterial activity against Escherichia coli after 24 hrs by broth dilution method.
Assay [7] deals with Bacillus subtilis. The assay is described as follows: Antibacterial activity against Bacillus subtilis.
Assay [8] deals with Bacillus subtilis. The assay is described as follows: Antibacterial activity against Bacillus subtilis after 24 hrs by broth dilution method.
The test system of assay [9] is Enterococcus faecalis. The assay is described as follows: Antibacterial activity against Streptococcus faecalis.
Assay [10] has as its system Enterococcus faecalis. Description: Antibacterial activity against Streptococcus faecalis after 24 hrs by broth dilution method.
Assay [11] has as its system Aspergillus flavus. The assay is described as follows: Antifungal activity against Aspergillus flavus.
For assay [12], the system named is Aspergillus flavus. The assay is described as follows: Antifungal activity against Aspergillus flavus after 72 to 96 hrs by broth dilution method.
Assay [13] relates to Aspergillus niger. The assay is described as follows: Antifungal activity against Aspergillus niger.
Assay [14] relates to Fusarium. The assay is described as follows: Antifungal activity against Fusarium after 72 to 96 hrs by broth dilution method.
The subject of assay [15] is Fusarium. The assay is described as follows: Antifungal activity against Fusarium.
The test system of assay [16] is Aspergillus niger. Description: Antifungal activity against Aspergillus niger after 72 to 96 hrs by broth dilution method.
Assay [17] concerns Rhizopus. The assay is described as follows: Antifungal activity against Rhizopus after 72 to 96 hrs by broth dilution method.
The test system of assay [18] is Rhizopus. Description: Antifungal activity against Rhizopus.
The subject of assay [19] is Penicillium. The assay is described as follows: Antifungal activity against Penicillium.
For assay [20], the system named is Penicillium. Description: Antifungal activity against Penicillium after 72 to 96 hrs by broth dilution method.

≈ marks a conversion by molar mass, not a printed value. Calls of active or inactive are those of the source.

With `CN[C@@H]1[C@H](O[C@H]2[C@H](O[C@H]3[C@H](O)[C@@H](O)[C@H](N=C(N)N)[C@@H](O)[C@@H]3N=C(N)N)O[C@@H](C)[C@]2(O)C=O)O[C@@H](CO)[C@H](O)[C@H]1O` [STREPTOMYCIN], the “inhibition zone (IZ)” value was 26 mm in assay [1]; 26 mm in assay [3]; 28 mm in assay [4]; 28 mm in assay [7]; 22 mm in assay [9]. Moreover, the MIC (in general, the smallest concentration in the dilution series that meets the test's criterion for growth inhibition) in assay [2] was 25 µg/mL (≈ 43 µM); in assay [5] it was 25 µg/mL (≈ 43 µM); in assay [6] it was 12.5 µg/mL (≈ 21.5 µM); in [8], 12.5 µg/mL (≈ 21.5 µM); in assay [10] it was 50 µg/mL (≈ 86 µM).
Consider `CCC1/C(=N/O)CC(c2ccccc2)N(C)C1c1ccccc1` (stereo not given), for which the “inhibition zone (IZ)” value in assay [11], in [13], in assay [15], in [19], in [1] and in assay [3] was “inactive” throughout. In addition, the MIC came to 200 µg/mL (≈ 648 µM) in assay [12]; 200 µg/mL (≈ 648 µM) in assay [14]; 200 µg/mL (≈ 648 µM) in [16]; 100 µg/mL (≈ 324 µM) in assay [17]; 200 µg/mL (≈ 648 µM) in [20]; 200 µg/mL (≈ 648 µM) in assay [2]. Moreover, the MIC was found to be 200 µg/mL (≈ 648 µM) in assay [5], 50 µg/mL (≈ 162 µM) in assay [6], 50 µg/mL (≈ 162 µM) in [8] and 200 µg/mL (≈ 648 µM) in assay [10]. Also, the “inhibition zone (IZ)” value in [18], in assay [4], in [7] and in assay [9] was 12 mm each time.
As to `CC(C)C1/C(=N/OC(=O)Oc2ccccc2)CC(c2ccccc2)N(C)C1c1ccccc1` (stereo not given), the “inhibition zone (IZ)” value in assay [11] was 17 mm; in assay [13], 12 mm; in assay [15], 17 mm; in assay [18] it was 17 mm; in [19] it was 17 mm; in assay [1], 22 mm. Also, the “inhibition zone (IZ)” value in assay [3] is reported as 22 mm; in assay [4], 17 mm; in assay [7], 17 mm; in assay [9] it was 17 mm. Besides, the MIC in [12] is 50 µg/mL (≈ 113 µM); in assay [14], 25 µg/mL (≈ 56.5 µM); in assay [16], 50 µg/mL (≈ 113 µM); in assay [17], 25 µg/mL (≈ 56.5 µM); in [20] it was 25 µg/mL (≈ 56.5 µM); in assay [2], 6.25 µg/mL (≈ 14.1 µM). Moreover, the MIC in assay [5] turned out to be 6.25 µg/mL (≈ 14.1 µM); in [6], 25 µg/mL (≈ 56.5 µM); in [8], 25 µg/mL (≈ 56.5 µM); in assay [10] it was 25 µg/mL (≈ 56.5 µM).
As for `CC(C)C1/C(=N/O)CC(c2ccccc2)N(C)C1c1ccccc1` (stereo not given), the “inhibition zone (IZ)” value in assay [11], in assay [13], in assay [15] and in [1] was “inactive” in each case. Also, the MIC in assay [12] was 200 µg/mL (≈ 620 µM); in assay [14], 200 µg/mL (≈ 620 µM); in assay [16], 200 µg/mL (≈ 620 µM); in assay [17], 50 µg/mL (≈ 155 µM); in [20] it was 100 µg/mL (≈ 310 µM); in [2], 200 µg/mL (≈ 620 µM). Besides, the MIC in [5] was found to be 200 µg/mL (≈ 620 µM); in [6], 50 µg/mL (≈ 155 µM); in assay [8], 25 µg/mL (≈ 77.5 µM); in [10] it was 50 µg/mL (≈ 155 µM). The “inhibition zone (IZ)” value in assay [18] worked out at 12 mm; in [19] it was 12 mm; in [3], 12 mm; in assay [4], 17 mm; in assay [7], 12 mm; in [9], 12 mm.
Turning to `CC(Cl)OC(=O)O/N=C1\CC(c2ccccc2)N(C)C(c2ccccc2)C1C` (stereo not given), the “inhibition zone (IZ)” value in assay [11] was 17 mm; in assay [13], 17 mm; in [15], 17 mm; in [18] it was 17 mm; in assay [19] it was 17 mm; in assay [1], 22 mm. For the same compound, the “inhibition zone (IZ)” value is listed as 22 mm in assay [3], 22 mm in [4], 17 mm in assay [7] and 22 mm in assay [9]. Also, the MIC in [12] came out at 50 µg/mL (≈ 125 µM); in [14] it was 25 µg/mL (≈ 62.4 µM); in [16] it was 50 µg/mL (≈ 125 µM); in assay [17], 25 µg/mL (≈ 62.4 µM); in assay [20], 25 µg/mL (≈ 62.4 µM); in assay [2], 12.5 µg/mL (≈ 31.2 µM). The MIC in assay [5] was 25 µg/mL (≈ 62.4 µM); in assay [6], 12.5 µg/mL (≈ 31.2 µM); in [8], 50 µg/mL (≈ 125 µM); in [10], 12.5 µg/mL (≈ 31.2 µM).
For the compound `CCC1/C(=N/OC(=O)Oc2ccccc2)CC(c2ccccc2)N(C)C1c1ccccc1` (stereo not given), the “inhibition zone (IZ)” value in [11] is 17 mm; in assay [13], 17 mm; in assay [15], 17 mm; in assay [18], 17 mm; in [19], 17 mm; in [1], 22 mm. In addition, the “inhibition zone (IZ)” value was 17 mm in assay [3], 12 mm in assay [4], 17 mm in assay [7] and 17 mm in assay [9]. In addition, the MIC turned out to be 50 µg/mL (≈ 117 µM) in assay [12]; 50 µg/mL (≈ 117 µM) in [14]; 50 µg/mL (≈ 117 µM) in assay [16]; 25 µg/mL (≈ 58.3 µM) in [17]; 25 µg/mL (≈ 58.3 µM) in [20]; 6.25 µg/mL (≈ 14.6 µM) in [2]. Further, the MIC in assay [5] came out at 12.5 µg/mL (≈ 29.2 µM); in [6], 25 µg/mL (≈ 58.3 µM); in assay [8], 25 µg/mL (≈ 58.3 µM); in [10], 25 µg/mL (≈ 58.3 µM).
For `CCC1/C(=N/OC(=O)OC)CC(c2ccccc2)N(C)C1c1ccccc1` (stereo not given), the “inhibition zone (IZ)” value in [11], in [13], in assay [15], in [19], in [1] and in assay [3] was “inactive” throughout. For the same compound, the minimum inhibitory concentration (MIC) in assay [12] was 200 µg/mL (≈ 546 µM); in [14], 200 µg/mL (≈ 546 µM); in assay [16] it was 200 µg/mL (≈ 546 µM); in [17], 100 µg/mL (≈ 273 µM); in [20], 200 µg/mL (≈ 546 µM); in assay [2], 200 µg/mL (≈ 546 µM). Besides, the MIC is 200 µg/mL (≈ 546 µM) in [5], 25 µg/mL (≈ 68.2 µM) in [6], 25 µg/mL (≈ 68.2 µM) in assay [8] and 100 µg/mL (≈ 273 µM) in [10]. Moreover, the “inhibition zone (IZ)” value in assay [18], in assay [4], in assay [7] and in assay [9] was 12 mm each time.
`C[C@@H]1[C@H](O)[C@@H](C)/C=C/C=C/C=C/C=C/C=C/C=C/C=C/[C@H](O[C@@H]2O[C@H](C)[C@@H](O)[C@H](N)[C@@H]2O)C[C@@H]2O[C@](O)(C[C@@H](O)C[C@@H](O)[C@H](O)CC[C@@H](O)C[C@@H](O)CC(=O)O[C@H]1C)C[C@H](O)[C@H]2C(=O)O` [AMPHOTERICIN B]: the “inhibition zone (IZ)” value in assay [11] is reported as 22 mm; in assay [13], 21 mm; in assay [15] it was 22 mm; in [18], 21 mm; in [19] it was 22 mm. In addition, the MIC in [12] turned out to be 50 µg/mL (≈ 54.1 µM); in [14], 25 µg/mL (≈ 27.1 µM); in [16], 50 µg/mL (≈ 54.1 µM); in [17] it was 25 µg/mL (≈ 27.1 µM); in [20], 25 µg/mL (≈ 27.1 µM).
